Data: the NIST ThermoML archive (doi:10.1021/je800849s)

Conditions: Liquid, Closed cell (Static) method

CCC [propane]
Conditions	vapor or sublimation pressure [kPa]
263.3 K	344
283.25 K	639
291.22 K	795
296.23 K	906
308.21 K	1221
323.19 K	1715
